We go through 10 molecules from patent US11739098B2 (BRISTOL-MYERS SQUIBB COMPANY, priority 2017, dated 2023).

As usually defined, the IC50 is the point on the concentration scale where inhibition reaches its midpoint. Read a low IC50 as greater potency.

Assay type in all cases: cell-based
The target of one experiment is T1, human TLR9 (Homo sapiens, UniProt Q9NR96).
T1 construct: host or cells: HEK-Blue cells (HEK293-derived reporter line)
T1 sequence (Q9NR96 26-1032): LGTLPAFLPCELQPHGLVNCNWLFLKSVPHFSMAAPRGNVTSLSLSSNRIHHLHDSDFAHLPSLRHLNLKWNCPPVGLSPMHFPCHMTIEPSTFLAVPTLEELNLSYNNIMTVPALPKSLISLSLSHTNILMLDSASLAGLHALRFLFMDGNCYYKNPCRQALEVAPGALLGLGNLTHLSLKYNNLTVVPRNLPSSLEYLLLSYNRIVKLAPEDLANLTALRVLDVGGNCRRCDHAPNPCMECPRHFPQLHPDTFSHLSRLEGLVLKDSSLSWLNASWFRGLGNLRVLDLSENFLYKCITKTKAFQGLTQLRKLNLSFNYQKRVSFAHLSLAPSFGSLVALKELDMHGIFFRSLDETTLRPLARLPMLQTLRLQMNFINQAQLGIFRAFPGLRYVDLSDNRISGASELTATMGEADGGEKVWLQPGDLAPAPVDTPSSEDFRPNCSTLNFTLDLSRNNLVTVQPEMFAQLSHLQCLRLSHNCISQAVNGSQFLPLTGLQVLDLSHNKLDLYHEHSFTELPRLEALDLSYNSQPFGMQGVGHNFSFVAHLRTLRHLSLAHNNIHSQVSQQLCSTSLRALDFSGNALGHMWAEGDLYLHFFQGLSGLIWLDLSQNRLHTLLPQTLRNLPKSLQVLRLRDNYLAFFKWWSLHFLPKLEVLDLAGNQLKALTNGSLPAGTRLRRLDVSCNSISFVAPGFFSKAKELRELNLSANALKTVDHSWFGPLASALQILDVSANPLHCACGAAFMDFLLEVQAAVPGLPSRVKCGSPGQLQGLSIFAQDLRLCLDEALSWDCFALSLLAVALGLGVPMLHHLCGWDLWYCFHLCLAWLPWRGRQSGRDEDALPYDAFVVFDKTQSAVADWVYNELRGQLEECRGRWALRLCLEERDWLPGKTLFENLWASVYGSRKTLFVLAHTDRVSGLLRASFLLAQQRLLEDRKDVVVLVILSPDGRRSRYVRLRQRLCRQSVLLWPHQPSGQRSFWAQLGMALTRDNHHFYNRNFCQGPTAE
The experiment can be described thus: TLR9 inhibition reporter assay (HEK-Blue cells, SEAP reporter, ODN2006 stimulation). As to conditions: HEK-Blue cells overexpressing human TLR9, SEAP reporter, ODN2006 5 nM. The essentials:
(§1)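 HEK-Blue cells overexpressing the receptor, with NF-κB/AP-1-driven SEAP, were pre-treated 30 min at room temperature with compound (0.05 nM–50 μM), then stimulated with gardiquimod 7.5 μM (TLR7), R848 15.9 μM (TLR8) or ODN2006 5 nM (TLR9). SEAP was read after 22 h at 37 °C as percent inhibition.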
Background: A reporter such as luciferase makes a cellular process visible.

The target of a further experiment is T2, human TLR8 (Homo sapiens, UniProt Q9NR97).
T2 construct: host or cells: HEK-Blue cells (HEK293-derived reporter line)
T2 sequence (Q9NR97 27-1041): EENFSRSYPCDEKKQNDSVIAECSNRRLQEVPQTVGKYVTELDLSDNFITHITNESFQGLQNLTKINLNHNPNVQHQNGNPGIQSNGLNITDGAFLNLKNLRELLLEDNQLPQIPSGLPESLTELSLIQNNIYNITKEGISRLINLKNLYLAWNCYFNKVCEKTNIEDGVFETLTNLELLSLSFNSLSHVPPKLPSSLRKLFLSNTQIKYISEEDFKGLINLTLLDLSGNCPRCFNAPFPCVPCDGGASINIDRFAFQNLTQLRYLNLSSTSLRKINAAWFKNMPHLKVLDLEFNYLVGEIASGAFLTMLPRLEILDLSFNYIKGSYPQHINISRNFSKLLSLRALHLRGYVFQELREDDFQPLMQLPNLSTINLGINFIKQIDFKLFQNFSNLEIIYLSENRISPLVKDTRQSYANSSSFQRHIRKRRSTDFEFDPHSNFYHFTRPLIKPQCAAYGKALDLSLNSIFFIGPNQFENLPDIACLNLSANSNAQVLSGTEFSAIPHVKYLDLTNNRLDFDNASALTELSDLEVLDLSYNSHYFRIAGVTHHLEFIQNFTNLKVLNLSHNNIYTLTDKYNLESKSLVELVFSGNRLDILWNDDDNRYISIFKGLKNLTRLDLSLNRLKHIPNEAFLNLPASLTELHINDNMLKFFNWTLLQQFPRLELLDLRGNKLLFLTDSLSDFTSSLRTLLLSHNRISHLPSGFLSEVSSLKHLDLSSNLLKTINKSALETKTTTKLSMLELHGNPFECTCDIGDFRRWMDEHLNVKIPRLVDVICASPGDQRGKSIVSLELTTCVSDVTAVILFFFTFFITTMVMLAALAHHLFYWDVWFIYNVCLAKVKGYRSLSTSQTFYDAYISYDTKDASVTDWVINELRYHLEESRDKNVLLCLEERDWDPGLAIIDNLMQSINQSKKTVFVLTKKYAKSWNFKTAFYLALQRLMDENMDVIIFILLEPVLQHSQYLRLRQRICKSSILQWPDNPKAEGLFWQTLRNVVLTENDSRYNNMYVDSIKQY
The experiment can be described thus: TLR8 inhibition reporter assay (HEK-Blue cells, SEAP reporter, R848 stimulation). As to conditions: HEK-Blue cells overexpressing human TLR8, SEAP reporter, R848 15.9 μM. The essentials:
as §1

The next experiment addresses T3, human TLR7 (Homo sapiens, UniProt Q9NYK1).
T3 construct: host or cells: HEK-Blue cells (HEK293-derived reporter line)
T3 sequence (Q9NYK1 27-1049): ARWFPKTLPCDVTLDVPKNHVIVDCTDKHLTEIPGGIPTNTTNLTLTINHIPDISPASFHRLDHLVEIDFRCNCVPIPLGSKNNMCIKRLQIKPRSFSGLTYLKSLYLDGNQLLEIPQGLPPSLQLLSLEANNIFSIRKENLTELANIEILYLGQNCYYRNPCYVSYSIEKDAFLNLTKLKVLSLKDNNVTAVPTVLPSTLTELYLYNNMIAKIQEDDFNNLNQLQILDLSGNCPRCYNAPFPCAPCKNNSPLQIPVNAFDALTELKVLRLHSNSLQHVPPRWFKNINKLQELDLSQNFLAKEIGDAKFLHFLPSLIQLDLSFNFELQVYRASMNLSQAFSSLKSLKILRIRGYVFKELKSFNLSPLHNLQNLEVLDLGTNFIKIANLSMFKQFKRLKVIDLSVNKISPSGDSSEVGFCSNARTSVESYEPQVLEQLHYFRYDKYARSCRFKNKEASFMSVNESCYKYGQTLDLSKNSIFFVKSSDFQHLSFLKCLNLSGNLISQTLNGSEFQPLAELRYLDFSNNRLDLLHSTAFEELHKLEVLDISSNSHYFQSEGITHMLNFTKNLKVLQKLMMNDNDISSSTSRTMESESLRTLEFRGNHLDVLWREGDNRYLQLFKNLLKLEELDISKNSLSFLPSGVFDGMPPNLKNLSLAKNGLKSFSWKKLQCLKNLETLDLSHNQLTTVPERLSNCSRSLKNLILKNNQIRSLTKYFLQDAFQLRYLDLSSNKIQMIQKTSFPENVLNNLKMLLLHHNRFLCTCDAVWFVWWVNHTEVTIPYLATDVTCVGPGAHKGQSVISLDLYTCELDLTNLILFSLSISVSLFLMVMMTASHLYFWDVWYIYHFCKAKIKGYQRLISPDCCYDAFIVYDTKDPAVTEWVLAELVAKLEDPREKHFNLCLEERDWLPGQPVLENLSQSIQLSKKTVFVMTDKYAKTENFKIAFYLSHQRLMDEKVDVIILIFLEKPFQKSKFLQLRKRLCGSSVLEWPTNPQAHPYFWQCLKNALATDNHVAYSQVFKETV
The experiment can be described thus: TLR7 inhibition reporter assay (HEK-Blue cells, SEAP reporter, gardiquimod stimulation). The conditions noted are these: HEK-Blue cells overexpressing human TLR7, SEAP reporter, gardiquimod 7.5 μM. The procedure, abridged:
as §1

With `CC(C)c1c(-c2cnc3[nH]nc(N)c3c2)[nH]c2ccc(C3CCNCC3)cc12` [Example 99, 5-(3-isopropyl-5-(piperidin-4-yl)-1H-indol-2-yl)-1H-pyrazolo[3,4-b]pyridin-3-amine], the results for the IC50 at human TLR9, against human TLR8 and at human TLR7 were 1000 to 50000 nM, 100 to 1000 nM and 100 to 1000 nM, respectively.
Consider `COc1c(C)c(-c2[nH]c3ccc(C4CCNCC4)cc3c2C(C)C)nn2ncnc12` [Example 33, 6-(3-isopropyl-5-(piperidin-4-yl)-1H-indol-2-yl)-8-methoxy-7-methyl-[1,2,4]triazolo[1,5-b]pyridazine], for which the IC50 is 100 to 1000 nM against human TLR9, less than 100 nM at human TLR8 and less than 100 nM against human TLR7.
Take `Cc1cc(-c2[nH]c3ccc(C4CCN(Cc5ccn(C)n5)CC4)cc3c2C(C)C)cn2nnnc12` [Example 884, 6-(3-isopropyl-5-(1-((1-methyl-1H-pyrazol-3-yl)methyl)piperidin-4-yl)-1H-indol-2-yl)-8-methyltetrazolo[1,5-a]pyridine]: the IC50 is 1000 to 50000 nM against human TLR9, less than 100 nM against human TLR8 and less than 100 nM on human TLR7.
Take `Cc1nc[nH]c1CN1CCC(c2ccc3[nH]c(-c4ccnc5[nH]nc(C)c45)c(C(C)C)c3c2)CC1` [Example 874, 4-(3-isopropyl-5-(1-((4-methyl-1H-imidazol-5-yl)methyl)piperidin-4-yl)-1H-indol-2-yl)-3-methyl-1H-pyrazolo[3,4-b]pyridine]: the IC50 against human TLR9 is 100 to 1000 nM; against human TLR8, less than 100 nM; at human TLR7 it was less than 100 nM.
Consider `Cc1cc(-c2c[nH]c3nccc(-c4[nH]c5ccc(C6CCNCC6)cc5c4C)c23)n(C)n1` [Example 225, 3-(1,3-dimethyl-1H-pyrazol-5-yl)-4-(3-methyl-5-(piperidin-4-yl)-1H-indol-2-yl)-1H-pyrrolo[2,3-b]pyridine], for which the IC50 against human TLR9, against human TLR8 and at human TLR7 was 100 to 1000 nM throughout.
`COc1cc(-c2[nH]c3ccc(C4CCN(C(=O)CN(C)C)CC4)cc3c2C(C)C)nn2ncnc12` [Example 460, 2-(dimethylamino)-1-(4-(3-isopropyl-2-(8-methoxy-[1,2,4]triazolo[1,5-b]pyridazin-6-yl)-1H-indol-5-yl)piperidin-1-yl)ethan-1-one]: the IC50 was 1000 to 50000 nM at human TLR9, less than 100 nM against human TLR8 and less than 100 nM against human TLR7.
With `CN(C)CC(=O)N1CCC(c2ccc3[nH]c(-c4ccn5ccnc5c4)c(CC(F)F)c3c2)CC1` [Example 571, 1-(4-(3-(2,2-difluoroethyl)-2-(imidazo[1,2-a]pyridin-7-yl)-1H-indol-5-yl)piperidin-1-yl)-2-(dimethylamino)ethan-1-one], the IC50 was less than 100 nM against human TLR9, 100 to 1000 nM on human TLR8 and less than 100 nM at human TLR7.
Consider `CC(C)c1c(-c2cn(C)c3ncncc23)[nH]c2ccc(C3CCN(C4CCOCC4)CC3)cc12` [Example 688, 5-(3-isopropyl-5-(1-(tetrahydro-2H-pyran-4-yl)piperidin-4-yl)-1H-indol-2-yl)-7-methyl-7H-pyrrolo[2,3-d]pyrimidine], for which the figures for the half-maximal inhibitory concentration (IC50) on human TLR9, on human TLR8 and at human TLR7 were 1000 to 50000 nM, less than 100 nM and less than 100 nM, respectively.
In the case of `CCc1c(-c2ccnc3[nH]ncc23)[nH]c2ccc(C3CCN(Cc4nc(C)oc4C)CC3)cc12` [Example 898, 4-((4-(3-ethyl-2-(1H-pyrazolo[3,4-b]pyridin-4-yl)-1H-indol-5-yl)piperidin-1-yl)methyl)-2,5-dimethyloxazole], the half-maximal inhibitory concentration (IC50) on human TLR9 is 1000 to 50000 nM; against human TLR8, less than 100 nM; against human TLR7, 100 to 1000 nM.
In the case of `CC(C)c1c(-c2ccc3ncnn3n2)[nH]c2ccc(C3CCN(CC(=O)N(C)C)CC3)cc12` [Example 278, 2-(4-(2-([1,2,4]triazolo[1,5-b]pyridazin-6-yl)-3-isopropyl-1H-indol-5-yl)piperidin-1-yl)-N,N-dimethylacetamide], the IC50 against human TLR9 was 1000 to 50000 nM; against human TLR8, less than 100 nM; against human TLR7 it was less than 100 nM.
